Laboratory results published in US9198875B2, “Controlled delivery of bioactive agents from decomposable films” (Massachusetts Institute of Technology, priority 2008, dated 2015).
Converted amounts (≈) assume the structure as drawn. Where two headings read alike, the source gives them in different places.

Assays:
[1] = Release of small molecules from polymeric cyclodextrin-containing LbL films in phosphate buffer (fluorescence spectroscopy); format: physicochemical; conditions: 20 bilayers; for Release Rate: from poly A3/poly(BCD) films, phosphate buffer pH 7.4
Description: Release profiles were investigated by monitoring the release of the small molecule using a fluorimeter and the degradation of non-radiolabeled films. For drug release experiments, 20 bilayer films were constructed using carboxymethylbeta-cyclodextrin polymer:drug conjugate solution. The deposition solutions were prepared by combining 25 μM carboxymethylbeta-cyclodextrin polymers solution in 0.1 M sodium acetate buffer (1 Mn=8,000), with the various small molecules. After fabrication, each twenty bilayer film was immersed in 10 mL phosphate buffer solution (pH 7.4, 137 mM NaCl, 2.7 mM KCl, 10 mM Na2HPO4). A 1 mL sample was extracted at various time points and analyzed via fluorescence spectroscopy. Degradation vials were tightly capped between sample extractions to prevent evaporation of the buffer solution. Raw spectrum data were converted to micrograms (μg) of drug released using a calibration curve for a given molecule at a defined emission wavelength.
Poly(BCD)-prodan inclusion complexes were made by dissolving prodan in poly(BCD) as described for poly(BCD)-ciprofloxacin inclusion complexes in Example 3. (Poly 1/poly(BCD)-prodan)20 films were constructed by layer-by-layer deposition and prodan release studies were conducted as described in Example 1.
Formation of poly(BCD): drug inclusion complexes and film construction were achieved by methods as described in Examples 1-3; release studies were performed as described in Example 4. Solubility values and complexation coefficients were determined and/or calculated according to previously published methods (Brewster et al. 2007. “Cyclodextrins as pharmaceutical solubilizers.” Advanced Drug Delivery. 59: 645-666).

[2] = Solubility of drugs in water and complexed with cyclodextrins; format: physicochemical
cyclooxygenase (COX) = experiment: Inhibition of cyclooxygenase by film release buffer in A549 cells, prostaglandin E2 concentration measured; format: cell-based, human; conditions: A549 cells exposed to aliquots of release buffer, buffer replaced every 24 hours
Excerpt: To determine if polymeric cyclodextrin alters drug activity, the inhibition of cyclooxygenase (COX) by diclofenac was investigated. COX is the rate limiting enzyme in the production of prostaglandins, which are important in homeostasis and inflammatory pathways (T. D. Warner et al., Proceedings of the National Academy of Sciences of the United States of America 1999, 96, 9966). A549 human lung carcinoma cells were exposed to aliquots of release buffer, and prostaglandin E2 concentration was measured. In the experiment, the release buffer was replaced every 24 hours, so that time points measured the activity of the drug released during each specific 24 hour period. […] The approach here is a utilization of a charged polymeric carrier capable of facile reversible complexation with the drug of choice in alternation with a degradable polyion. Charged cyclodextrin polymers were used for the trapping of cyclodextrin-drug complexes in stable, surface eroding films capable of drug release within the cyclodextrin carrier without altering activity. […] This technology can be applied to nanomedicine coatings for applications in personalized medicine, transdermal delivery, medical devices, nanoparticulate carriers, prosthetic implants, as well as small molecules for imaging, agriculture, and basic scientific research.

[3] = Complexation coefficients of drugs with cyclodextrins; format: physicochemical; conditions: calculated from solubility values
[4] = Release of 14C-dextran sulfate from LbL films in phosphate buffer (scintillation counting); format: physicochemical; conditions: films built with poly A3, 20 bilayers, phosphate buffer pH 7.4; approximately linear kinetics
Description: Release profiles were investigated by monitoring the release of ^14C-dextran sulfate and the degradation of non-radiolabeled films. For drug release experiments, 20 bilayer radiolabeled films were constructed using ^14C-dextran sulfate solution. The radiolabled deposition solutions were prepared by combining ^14C-dextran sulfate (1.5 mCi/g, Mn=8,000), unlabeled dextran sulfate (Mn=8,000), and 100 mM acetate buffer to yield a total concentration of dextran sulfate (unlabeled plus labeled) to 2 mg/mL (1 μCi/mL ^14C). After fabrication, each twenty bilayer film was immersed in 30 mL phosphate buffer solution (pH 7.4, 137 mM NaCl, 2.7 mM KCl, 10 mM Na2HPO4). A 1 mL sample was extracted at various time points and analyzed via scintillation counting. Scintillation counting was performed on a Tri-carb liquid scintillation counter (Model U2200) and the amount of radiolabel in each sample vial was measured using ^14C protocol. Degradation vials were tightly capped between sample extractions to prevent evaporation of the buffer solution. Raw data (disintegrations per minute, DPM) were converted to micrograms (μg) of drug released using the conversion factor 2.2×10^6 DPM=1 μCi, the specific radioactivity of the drug, and knowledge of the ratio of total drug to labeled drug in the deposition solution.

[5] = drug complexed with cyclodextrins, aqueous with cosolvent or surfactant or cyclodextrin, read-out: St, solubility complexed with cyclodextrins

Row | Release Rate [1] [ng/h] | Kc, complexation coefficient [3] [M⁻¹] | Compound | solubility [2, 5] [µg/mL] | other results
1 | – | – | O=C(O)c1cn(C2CC2)c2cc(N3CCNCC3)c(F)cc2c1=O [Ciprofloxacin] | – | time through which ciprofloxacin continued to be released (latest time point tested) ([1]; poly 1/poly(BCD)-ciprofloxacin films, phosphate buffer): ≥ 69.3 h
2 | 4 | 4930 | CC(C(=O)O)c1ccc(-c2ccccc2)c(F)c1 (stereo not drawn) [Flurbiprofen] | 540 (≈ 2210 µM) | S0, solubility in water ([2]; in water): 8 µg/mL
3 | 1 | 4300 | COc1ccc2cc([C@H](C)C(=O)O)ccc2c1 [Naproxen] | – | –
4 | – | – | dextran sulfate | – | time span over which dextran sulfate continued to be released [4]: at least 8 days

Row | Compound | Release Rate [1] [ng/h] | Kc, complexation coefficient [3] [M⁻¹] | solubility [2, 5] [µg/mL] | other results
5 | O=C(O)Cc1ccccc1Nc1c(Cl)cccc1Cl [Diclofenac] | 5 | – | 2800 (≈ 9450 µM) | solubility ([2]; in water, read-out: S0, solubility in water): 2 µg/mL (≈ 6.75 µM); activity of released drug: COX inhibition, suppressed prostaglandin production (cyclooxygenase (COX)): highly active
